Results taken from paper PMC3066655 (Journal of medicinal chemistry, 2011).

Key:
[1] = target: T1, σ2 receptor (Rattus norvegicus, UniProt Q5U3Y7); experiment: σ2 receptor binding assay, [3H]-DTG, liver membrane homogenates; settings: for D3/ σ2 ratio: ratio of D3 and σ2 Ki values
T1 sequence (Q5U3Y7 1-176): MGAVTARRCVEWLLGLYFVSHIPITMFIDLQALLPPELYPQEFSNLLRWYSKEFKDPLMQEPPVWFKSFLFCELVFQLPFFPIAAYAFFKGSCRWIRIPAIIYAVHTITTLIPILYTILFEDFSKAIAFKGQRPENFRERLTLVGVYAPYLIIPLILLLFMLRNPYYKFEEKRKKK

[2] = target: σ1 receptor (Cavia porcellus, UniProt Q60492); experiment: σ1 receptor binding assay; parameters: species or system guinea pig; settings: ratio of D3 and σ1 Ki values
Chain of σ1 receptor (Q60492 whole entry): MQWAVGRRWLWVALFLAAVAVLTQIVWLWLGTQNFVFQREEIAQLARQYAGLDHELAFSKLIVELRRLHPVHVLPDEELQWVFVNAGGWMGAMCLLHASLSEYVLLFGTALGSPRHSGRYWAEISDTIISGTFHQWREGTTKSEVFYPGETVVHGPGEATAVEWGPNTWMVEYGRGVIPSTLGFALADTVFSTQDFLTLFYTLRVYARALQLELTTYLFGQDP

SMILES: O=C(NC/C=C/CN1CCN(c2ccccc2OCCF)CC1)c1ccc(CCF)cc1.O=C(O)C(=O)O [Compound 21b, 4-(2-Fluoroethyl)-N-(4-(4-(2-(2-Fluoroethoxy)phenyl)piperazin-1-yl)-trans-butyl-2-enyl)benzamide]
- Ki [1]: 2.02 µM
- D3/ σ2 ratio [1]: 1,839
- D3/ σ1 Ratio [2]: 6,541

SMILES: COc1ccccc1N1CCN(CCCCNC(=O)c2ccc(OCCOCCOCCF)cc2)CC1.O=C(O)C(=O)O [Compound 18c, 4-(2-(2-(2-Fluoroethoxy)ethoxy)ethoxy)-N-(4-(4-(2-methoxyphenyl)piperazin-1-l)butyl)benzamide]
- Ki [1]: 1.12 µM
- D3/ σ1 Ratio [2]: 1,159

SMILES: COc1ccccc1N1CCN(CCCCNC(=O)c2ccc(N(C)C)cc2)CC1 [Compound 1, 4-(Dimethylamino)-N-[4-(4-(2-methoxyphenyl)piperazin-1-yl)butyl]benzamide, reference compound]
- Ki [1]: 1.57 µM
- D3/ σ2 ratio [1]: 1,970
- D3/ σ1 Ratio [2]: 1,573

SMILES: COc1ccccc1N1CCN(CCCCNC(=O)c2ccc(OCCF)cc2)CC1 [Compound 18a, 4-(2-Fluoroethoxy)-N-(4-(4-(2-methoxyphenyl)-piperazin-1-yl)-butyl)benzamide]
- Ki [1]: 0.66 ± 0.036 µM

SMILES: O=C(NC/C=C/CN1CCN(c2ccccc2OCCF)CC1)c1ccc(-c2ccsc2)cc1.O=C(O)C(=O)O [Compound 21e, 4-(Thiophen-3-yl)-N-(4-(4-(2-(2-fluoroethoxy)phenyl)piperazin-1-yl)-trans-but-2-enyl)benzamide]
- Ki [1]: 1.32 µM
- D3/ σ2 ratio [1]: 1,200
- D3/ σ1 Ratio [2]: 7,076

SMILES: COc1ccccc1N1CCN(CCCCNC(=O)c2ccc(CCF)cc2)CC1 [Compound 2, reference compound]
- Ki [1]: 2.21 µM
